“And” between values parts separate entries of the source, which are not always exact repeats. Identical values can stand only once.
Key:
[1] = tested on: Lewis lung carcinoma (LLC); experiment: Antitumor and antimetastatic effect in the Lewis lung carcinoma model; assay type: in vivo, mice; conditions: for average number of metastases in the lungs / average primary node (tumor) weight / tumor growth inhibition (TGI): C57BL mice with LLC; for average number of metastases in the lungs / average primary node (tumor) weight: day 18, mean ± SD; for average primary node (tumor) weight: single dose; for tumor growth inhibition (TGI): vs intact control; for number of metastases in the lungs / tumor weight: individual animals; for effect on the number of metastases in the lungs (in words): monotherapy, Tpc 1 mg/kg i/p, 7 50 mg/kg i/p or i/g
Excerpt: Compound 7 is a hybrid of two compounds: leaders in their subclasses of usnic acid derivatives 1 and 4 [28, 32]. We studied the ability of compound 7 to sensitize the effect of topotecan on murine Lewis lung carcinoma (LLC) (Tpc + 7, Figure 3). The LLC cell line was maintained as a transplantable strain in mice and was provided by the cell depository of the Institute of Cytology and Genetics SB RAS (Novosibirsk, Russia). […] Subcutaneous transplantation leads to the development of a primary node at the injection site and the appearance of metastases in the lungs on days 17–21 [47]. The size of the primary tumor was determined as the difference in the weight of the healthy limb and the limb with the tumor after the mice were removed from the experiment on 18th day after LLC transplantation.
Female C57BL mice with a body weight of ~19–21 g were used in the study. Mice were housed in plastic cages with a wood chip bedding and had free access to water and food. Lewis lung carcinoma (LLC) and Krebs-2 ascites were used as experimental tumor models. The transplantable tumors were obtained from the cell bank of the Institute of Cytology and Genetics (Novosibirsk, Russia). The LLC mouse model is the most common model of lung cancer; LLC cells remain tumorigenic and capable of metastasis into the lung in C57BL mice. Tumor tissue was minced and resuspended in 0.9% NaCl prior to grafting. LLC was injected into the right thigh of mice at 800,000 cells in 0.2 mL per mouse.
Previously, we divided the animals into 6 groups of 6–7 individuals in each, the treatment was carried out once 7 days after tumor transplantation: • - Group 1—Intact control—mice of this group were inoculated with a tumor, receiving 0.2 mL of saline intraperitoneally; • - Group 2—DMSO-Tween-80—mice were injected once intragastrically with a probe 200 μL of a solution containing saline, Tween-80 (10%) and DMSO (15%), a solvent for 7; • - Group 3—Tpc (aqueous solution)—mice were injected once intraperitoneally with 200 µL of Tpc at a single dose of 1 mg/kg; • - Group 4—Tpc + 7 i/g—mice received Tpc once as described for group 3 and 7 in the form of 200 µL of suspension (Tween-80 (10%) and DMSO (15%) in saline) once intragastrically at a dose of 50 mg/kg; • - Group 5—7 i/g—mice were injected with 7 as described for group 4; • - Group 6—Tpc + 7 i/p—mice were injected with topotecan once as described for groups 3 and 7 in the form of 200 µL of suspension (Tween-80 (10%) and DMSO (15%) in saline) once intraperitoneally at a dose of 50 mg/kg; • - Group 7—7 i/p—mice were injected with 7 as for group 6.
The substances were administered as a single injection in a volume of 0.2 mL on day 13 after tumor grafting. The anticancer effect was evaluated by the primary tumor growth and the number of metastases in the lungs of all mice. Metastases were counted after fixation in 10% formalin under an MBI-3 microscope (LOMO, Saint Petersburg, Soviet Union) at a threefold magnification.

[2] = Toxic effect in mice with LLC (body weight, liver and spleen indices)
Excerpt: We also studied the effect of topotecan, compound 7, and their combinations on changes in body weight of mice with LLC from days 1 to 18 after tumor transplantation and of mice with Krebs-2 carcinoma from days 1 to 8.
In addition, at the end of the experiments, we removed and weighed the liver and spleen, and calculated the liver and spleen indices.
The toxic effects of the substances were inferred from the changes in body weight during the experiment (the mice with LLC were weighed on days 1, 3, 5, 7, 10, 12, 14, 16, and 18 after grafting) and the liver and spleen weight indices at the end of the experiment.

[3] = Leukocyte and erythrocyte counts in peripheral blood of mice with Krebs-2 carcinoma; assay type: in vivo
Experimental: We also counted leukocytes and erythrocytes in mice with Krebs-2 carcinoma. […] An increase in white blood cell count in the peripheral blood is associated with the inflammatory process that develops during tumor formation and growth. […] It should be noted that topotecan at the dose of 1 mg/kg was not hemotoxic and partly normalized the concentrations of leukocytes and erythrocytes, apparently due to its antitumor effect. Treatment of mice with only compound 7, regardless of the route of administration, reduced the number of leukocytes somewhat more effectively than the drugs listed above, but the decrease was significant only in comparison with the control without treatment.
White and red blood cell counts were determined using a Goryaev chamber using a BIOSCOP-1 microscope (LOMO-MA, St. Petersburg, Russia).

[4] = Tpc 1 mg/kg i/p and/or 7 50 mg/kg i/p
[5] = 7 50 mg/kg i/g, alone or with Tpc 1 mg/kg i/p
[6] = mice with LLC, 7 50 mg/kg i/g, alone or with Tpc 1 mg/kg i/p
[7] = mice with LLC, Tpc 1 mg/kg i/p and/or 7 50 mg/kg i/p

Structure (SMILES) | average number of metastases in the lungs [1, 4] | average primary node (tumor) weight [1, 4] | tumor growth inhibition (TGI) [1, 4] [%] | number of metastases in the lungs [1, 7] | tumor weight [1, 7] | effect on the number of metastases in the lungs (in words) ([1]; mice with LLC) | changes in body weight of mice (in words) ([2]; mouse, in vivo) | organ index, Spleen (group mean) ([2]; mouse, in vivo) [%] | Concentration of erythrocytes in peripheral blood [3, 4] [million/µL] | Concentration of leukocytes in peripheral blood [3, 4] [thousand/µL] | also measured
C/C(NCCCc1cc(C(C)(C)C)c(O)c(C(C)(C)C)c1)=C1\C(=O)C=C2Oc3c(-c4csc(N/N=C/c5ccc(Br)cc5)n4)c(O)c(C)c(O)c3[C@@]2(C)C1=O [Compound 7, (4E)-10-{2-[(E)-2-[(4-bromophenyl)methylidene]hydrazin-1-yl]-1,3-thiazole-4-yl}-4-(1-{[3-(3,5-di-tret-butyl-4-hydroxyhenyl)propyl]amino}ethylidene)-11,13-dihydroxy-2,12-dimethyl-8-oxatricyclo [7.4.0.02,7]trideca-1(13),6,9,11-tetraen-3,5-dione] | 15,5±5,5 | 3,9±0,7 g | 11.4 | 10 and 21 | 3.4 g and 4.4 g | no effect | tendency towards an increase in the weight of animals | 1.3±0.2 | 7 ± 0.6 | 10.1 ± 0.9 | average primary node (tumor) weight [1, 5]: 4,2±0,9 g; tumor growth inhibition (TGI) [1, 5]: 4.5%; number of metastases in the lungs [1, 6]: 18 and 4 and 21 and 0; tumor weight [1, 6]: 2.9 g and 4.5 g and 4.8 g and 3.7 g and 5.3 g; effect on the growth of the primary node (in words) ([1]; mice with LLC, mono mode): no effect; tolerability / acute toxic effect (in words) ([2]; mouse, in vivo): well tolerated and did not cause acute toxic effect; Concentration of erythrocytes in peripheral blood [3, 5]: 7.2 ± 0.6 million/µL; Concentration of leukocytes in peripheral blood [3, 5]: 10.7 ± 0.8 thousand/µL
CC[C@@]1(O)C(=O)OCc2c1cc1n(c2=O)Cc2cc3c(CN(C)C)c(O)ccc3nc2-1 [Tpc, topotecan] | 11,8±6,1 | 2,8±0,5 g | 36.4 | 24 and 9 and 5 | 2.9 g and 3 g and 3.4 g and 2.7 g | virtually no effect | tendency towards an increase in the weight of animals | 1.19±0.04 | 7.6 ± 0.4 | 11.2 ± 0.7 | tolerability / acute toxic effect (in words) ([2]; mice with LLC and mice with Krebs-2 carcinoma): well tolerated and did not cause acute toxic effect; organ index, Liver (group mean) ([2]; mouse, in vivo): 5.6±0.7%; hemotoxicity (in words) ([3]; dose of 1 mg/kg): not hemotoxic
